Laboratory results: patent US10981926B2 (Janssen Pharmaceutica NV, priority 2016, dated 2021)

Legend:
[1] = target: T1, wild-type Androgen Receptor (AR-wt) (Homo sapiens (Human), UniProt P10275); assay: LNCaP-AR-wt ANT reporter assay (antagonist mode); format: cell-based; details: for IC50 / LNCaP-AR-wt ANT pIC50: antagonist mode, pIC50 = −Log10(IC50 in Molar); for IC50: read-out: LNCaP-AR-wt ANT pIC50 (converted); for Emax: maximum % inhibition of R1881 control response over the tested concentration range, read-out: LNCaP-AR-wt ANT MAX % Inh
[2] = target: T1, wild-type Androgen Receptor (AR-wt); assay: LNCaP-AR-wt AG reporter assay (agonist mode); format: cell-based; details: for EC50: read-out: LNCaP-AR-wt AG pEC50 (converted); for Emax: maximum % stimulation (agonist response) over the tested concentration range, read-out: LNCaP-AR-wt AG MAX % Stim
[3] = target: T2, F876L mutant Androgen Receptor (AR-F876L) (Homo sapiens (Human), UniProt P10275, F877L); assay: LNCaP-AR-F876L ANT reporter assay (antagonist mode); format: cell-based; details: for IC50 / LNCaP-AR-F876L ANT pIC50: antagonist mode, pIC50 = −Log10(IC50 in Molar); for IC50: read-out: LNCaP-AR-F876L ANT pIC50 (converted); for Emax: maximum % inhibition of R1881 control response over the tested concentration range, read-out: LNCaP-AR-F876L ANT MAX % Inh
[4] = target: T2, F876L mutant Androgen Receptor (AR-F876L); assay: LNCaP-AR-F876L AG reporter assay (agonist mode); format: cell-based; details: for EC50: read-out: LNCaP-AR-F876L AG pEC50 (converted); for Emax: maximum % stimulation (agonist response) over the tested concentration range, read-out: LNCaP-AR-F876L AG MAX % Stim
[5] = test system: rGABA-gated Cl− channel; assay: GABA-Gated Cl Channel Antagonist Radioligand Binding Assay; set-up: species or system rat; details: 10 μM single point, [35S]-TBPS, cerebral cortex membrane homogenates
Method: GABA-gated C1 Chanel assays were performed at CEREP according to the following method. Membrane homogenates of cerebral cortex (120 μg protein) were incubated for 120 min at 22° C. with 3 nM […] in the absence or presence of the test compound in a buffer containing 50 mM Na2HPO4/KH2PO4 (pH 7.4) and 500 mM NaCl. Nonspecific binding was determined in the presence of 20 μM picrotoxinin. Following incubation, the samples were filtered rapidly under vacuum through glass fiber filters (GF/B, Packard) presoaked with 0.3% PEI and rinsed several times with ice-cold 50 mM Tris-HCl using a 96-sample cell harvester (Unifilter, Packard). The filters were dried then counted for radioactivity in a scintillation counter (Topcount, Packard) using a scintillation cocktail (Microscint 0, Packard). The results are expressed as a percent inhibition of the control radio ligand specific binding. The standard reference compound is picrotoxinin, which was tested in each experiment at several concentrations to obtain a competition curve from which its IC50 was calculated. In this assay, the following representative compounds disclosed herein had recorded activities at a 10 μM single point concentration in the GABA-gated Cl— Channel Binding Assay.

[6] = agonist mode, pEC50 = −Log10(EC50 in Molar)

T2 sequence (P10275 whole entry F877L): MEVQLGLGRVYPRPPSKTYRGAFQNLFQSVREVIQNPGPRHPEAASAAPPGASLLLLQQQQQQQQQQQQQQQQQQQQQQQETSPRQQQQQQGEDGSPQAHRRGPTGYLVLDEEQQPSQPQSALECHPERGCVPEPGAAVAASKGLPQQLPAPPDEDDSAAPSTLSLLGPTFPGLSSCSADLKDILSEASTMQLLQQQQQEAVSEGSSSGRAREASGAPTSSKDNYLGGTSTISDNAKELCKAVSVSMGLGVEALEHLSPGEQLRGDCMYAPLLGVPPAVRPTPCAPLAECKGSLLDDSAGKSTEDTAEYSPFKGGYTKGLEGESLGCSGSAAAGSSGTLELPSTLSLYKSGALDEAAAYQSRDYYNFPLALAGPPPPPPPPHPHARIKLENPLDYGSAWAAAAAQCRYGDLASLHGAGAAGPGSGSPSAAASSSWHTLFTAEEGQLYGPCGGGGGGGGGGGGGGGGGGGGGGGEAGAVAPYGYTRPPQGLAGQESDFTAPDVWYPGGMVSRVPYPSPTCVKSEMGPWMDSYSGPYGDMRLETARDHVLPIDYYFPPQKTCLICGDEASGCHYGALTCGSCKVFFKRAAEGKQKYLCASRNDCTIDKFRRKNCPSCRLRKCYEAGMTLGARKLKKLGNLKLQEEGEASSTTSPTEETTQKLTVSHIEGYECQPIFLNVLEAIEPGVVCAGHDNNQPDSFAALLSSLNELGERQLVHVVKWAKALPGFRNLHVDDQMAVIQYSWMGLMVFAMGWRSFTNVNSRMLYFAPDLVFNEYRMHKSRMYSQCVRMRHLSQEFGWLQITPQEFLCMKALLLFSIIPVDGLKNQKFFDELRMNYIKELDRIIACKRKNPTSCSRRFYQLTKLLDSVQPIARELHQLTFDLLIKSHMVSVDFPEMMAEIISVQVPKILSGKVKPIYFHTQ
T1 sequence (P10275 whole entry): as the sequence (P10275 whole entry F877L) above, with L877F counted along it

COC(=O)CN1CCC(Oc2ccc(N3C(=S)N(c4cnc(C#N)c(C(F)(F)F)c4)C(=O)C34CCC4)cc2)CC1 [Cpd 33, methyl 2-[4-[4-[6-[6-cyano-5-(trifluoromethyl)-3-pyridyl]-5-oxo-7-thioxo-6,8-diazaspiro[3.4]octan-8-yl]phenoxy]-1-piperidyl]acetate]
IC50 [1]: 708 nM
Emax [1]: 98.9%
EC50 [2, 6]: > 15100 nM
Emax [2]: 0.2%
IC50 [3]: 389 nM
Emax [3]: 98.2%
EC50 [4, 6]: > 15100 nM
Emax [4]: 2.8%
rGABA-gated Cl− channel % inh @10 μM [5]: 99.2%

CC(C)(C)CCN1CCC(Oc2ccc(N3C(=S)N(c4cnc(C#N)c(C(F)(F)F)c4)C(=O)C34CCC4)cc2)CC1 [Cpd 34, 5-(5-(4-((1-(3,3-dimethylbutyl)piperidin-4-yl)oxy)phenyl)-8-oxo-6-thioxo-5,7-diazaspiro[3.4]octan-7-yl)-3-(trifluoromethyl)picolinonitrile]
IC50 [1]: 3310 nM
Emax [1]: 82.7%
EC50 [2, 6]: > 15100 nM
Emax [2]: -0.4%
IC50 [3]: 1260 nM
Emax [3]: 89.7%
EC50 [4, 6]: > 15100 nM
Emax [4]: 0.2%
rGABA-gated Cl− channel % inh @10 μM [5]: 91.2%

Cc1cc(N2C(=O)C3(CCC3)N(c3ccc(OC4CCN(C5CC5)CC4)cc3)C2=S)cnc1C#N [Cpd 35, 5-[8-[4-[(1-cyclopropyl-4-piperidyl)oxy]phenyl]-5-oxo-7-thioxo-6,8-diazaspiro[3.4]octan-6-yl]-3-methyl-pyridine-2-carbonitrile]
IC50 [1]: 912 nM
Emax [1]: 100%
EC50 [2, 6]: > 15100 nM
Emax [2]: 0.2%
IC50 [3]: 372 nM
Emax [3]: 99.5%
EC50 [4, 6]: > 15100 nM
Emax [4]: 0.3%
rGABA-gated Cl− channel % inh @10 μM [5]: 49.9%

N#Cc1ncc(N2C(=O)C3(CCC3)N(c3ccc(OC4CCN(C5CC5)CC4)cc3)C2=S)cc1C(F)(F)F [Cpd 36, 5-[8-[4-[(1-cyclopropyl-4-piperidyl)oxy]phenyl]-5-oxo-7-thioxo-6,8-diazaspiro[3.4]octan-6-yl]-3-(trifluoromethyl)pyridine-2-carbonitrile]
IC50 [1]: 759 nM
Emax [1]: 100%
EC50 [2, 6]: > 15100 nM
Emax [2]: -0.2%
IC50 [3]: 631 nM
Emax [3]: 99.1%
EC50 [4, 6]: > 15100 nM
Emax [4]: 1%
rGABA-gated Cl− channel % inh @10 μM [5]: 96.2%

COCCN1CCC(Oc2ccc(N3C(=S)N(c4cnc(C#N)c(C)c4)C(=O)C34CCC4)cc2)CC1 [Cpd 37, 5-[8-[4-[[1-(2-methoxyethyl)-4-piperidyl]oxy]phenyl]-5-oxo-7-thioxo-6,8-diazaspiro[3.4]octan-6-yl]-3-methyl-pyridine-2-carbonitrile]
IC50 [1]: 1260 nM
Emax [1]: 99.8%
EC50 [2, 6]: > 15100 nM
Emax [2]: 0.1%
IC50 [3]: 407 nM
Emax [3]: 99.5%
EC50 [4, 6]: > 15100 nM
Emax [4]: 0%
rGABA-gated Cl− channel % inh @10 μM [5]: 18.8%

COCCN1CCC(Oc2ccc(N3C(=S)N(c4cnc(C#N)c(C(F)(F)F)c4)C(=O)C34CCC4)cc2)CC1 [Cpd 38, 5-[8-[4-[[1-(2-methoxyethyl)-4-piperidyl]oxy]phenyl]-5-oxo-7-thioxo-6,8-diazaspiro[3.4]octan-6-yl]-3-(trifluoromethyl)pyridine-2-carbonitrile]
IC50 [1]: 708 nM
Emax [1]: 101%
EC50 [2, 6]: > 15100 nM
Emax [2]: 0%
IC50 [3]: 324 nM
Emax [3]: 99.9%
EC50 [4, 6]: > 15100 nM
Emax [4]: 0.3%
rGABA-gated Cl− channel % inh @10 μM [5]: 69.2%

N#CCN1CCC(Oc2ccc(N3C(=S)N(c4cnc(C#N)c(C(F)(F)F)c4)C(=O)C34CCC4)cc2)CC1 [Cpd 39, 5-[8-[4-[[1-(cyanomethyl)-4-piperidyl]oxy]phenyl]-5-oxo-7-thioxo-6,8-diazaspiro[3.4]octan-6-yl]-3-(trifluoromethyl)pyridine-2-carbonitrile]
IC50 [1]: 676 nM
Emax [1]: 100%
EC50 [2, 6]: > 15100 nM
Emax [2]: 0.9%
IC50 [3]: 245 nM
Emax [3]: 101%
EC50 [4, 6]: > 15100 nM
Emax [4]: -0.1%
rGABA-gated Cl− channel % inh @10 μM [5]: 86.2%

N#Cc1ncc(N2C(=O)C3(CCC3)N(c3ccc(OC4CCN(CC(F)(F)F)CC4)cc3)C2=S)cc1C(F)(F)F [Cpd 40, 5-[5-oxo-7-thioxo-8-[4-[[1-(2,2,2-trifluoroethyl)-4-piperidyl]oxy]phenyl]-6,8-diazaspiro[3.4]octan-6-yl]-3-(trifluoromethyl)pyridine-2-carbonitrile]
IC50 [1]: 537 nM
Emax [1]: 97.6%
EC50 [2, 6]: > 15100 nM
Emax [2]: 0.2%
IC50 [3]: 1000 nM
Emax [3]: 96%
EC50 [4, 6]: > 15100 nM
Emax [4]: 1.5%
rGABA-gated Cl− channel % inh @10 μM [5]: 67.5%

CN1CCC(Oc2ccc(N3C(=S)N(c4cnc(C#N)c(C(F)F)c4)C(=O)C34CCC4)cc2)CC1 [Cpd 41, 3-(difluoromethyl)-5-[8-[4-[(1-methyl-4-piperidyl)oxy]phenyl]-5-oxo-7-thioxo-6,8-diazaspiro[3,4]octan-6-yl]pyridine-2-carbonitrile]
IC50 [1]: 427 nM
Emax [1]: 99.3%
EC50 [2, 6]: > 15100 nM
Emax [2]: 0.1%
IC50 [3]: 257 nM
Emax [3]: 99.9%
EC50 [4, 6]: > 15100 nM
Emax [4]: 0.1%
rGABA-gated Cl− channel % inh @10 μM [5]: 20.4%

N#Cc1ncc(N2C(=O)C3(CCC3)N(c3ccc(OC4CCNCC4)cc3)C2=S)cc1Cl [Cpd 44, 3-chloro-5-[5-oxo-8-[4-(4-piperidyloxy)phenyl]-7-thioxo-6,8-diazaspiro[3.4]octan-6-yl]pyridine-2-carbonitrile]
LNCaP-AR-wt ANT pIC50 [1]: 7.12
Emax [1]: 98.8%
EC50 [2, 6]: > 15100 nM
Emax [2]: 0.7%
LNCaP-AR-F876L ANT pIC50 [3]: 7.43
Emax [3]: 101%
EC50 [4, 6]: > 15100 nM
Emax [4]: 0.1%
rGABA-gated Cl− channel % inh @10 μM [5]: −0.5%

N#Cc1ncc(N2C(=O)C3(CCC3)N(c3ccc(CN4CCNCC4)cc3)C2=S)cc1C(F)(F)F [Cpd 48, 5-[5-oxo-8-[4-(piperazin-1-ylmethyl)phenyl]-7-thioxo-6,8-diazaspiro[3.4]octan-6-yl]-3-(trifluoromethyl)pyridine-2-carbonitrile]
LNCaP-AR-wt ANT pIC50 [1]: 6.45
Emax [1]: 102%
EC50 [2, 6]: > 15100 nM
Emax [2]: 0%
LNCaP-AR-F876L ANT pIC50 [3]: 6.69
Emax [3]: 100%
EC50 [4, 6]: > 15100 nM
Emax [4]: 0.2%
rGABA-gated Cl− channel % inh @10 μM [5]: 37.2%

CCOC(=O)N1CCC(CNC(=O)c2ccc(N3C(=S)N(c4cnc(C#N)c(C(F)(F)F)c4)C(=O)C34CCC4)cc2)CC1 [Cpd 49, ethyl 4-[[[4-[6-[6-cyano-5-(trifluoromethyl)-3-pyridyl]-5-oxo-7-thioxo-6,8-diazaspiro[3.4]octan-8-yl]benzoyl]amino]methyl]piperidine-1-carboxylate]
IC50 [1]: 105 nM
Emax [1]: 101%
EC50 [2, 6]: > 15100 nM
Emax [2]: 0.3%
IC50 [3]: 56.2 nM
Emax [3]: 99.5%
EC50 [4, 6]: > 15100 nM
Emax [4]: 0.4%
rGABA-gated Cl− channel % inh @10 μM [5]: 86.4%

N#Cc1ncc(N2C(=O)C3(CCC3)N(c3ccc(OC4CCN(CCO)CC4)cc3)C2=S)cc1Cl [Cpd 50, 3-chloro-5-[8-[4-[[1-(2-hydroxyethyl)-4-piperidyl]oxy]phenyl]-5-oxo-7-thioxo-6,8-diazaspiro[3.4]octan-6-yl]pyridine-2-carbonitrile]
IC50 [1]: 16.2 nM
Emax [1]: 101%
EC50 [2, 6]: > 15100 nM
Emax [2]: 0.1%
IC50 [3]: 8.71 nM
Emax [3]: 98%
EC50 [4, 6]: > 15100 nM
Emax [4]: 1.4%
rGABA-gated Cl− channel % inh @10 μM [5]: 13.2%

CN1[C@@H]2CC[C@H]1C[C@H](Oc1ccc(N3C(=S)N(c4cnc(C#N)c(C(F)(F)F)c4)C(=O)C34CCC4)cc1)C2 [Cpd 52, 5-[8-[4-[[(1R,3s,5S)-8-methyl-8-azabicyclo[3.2.1]octan-3-yl]oxy]phenyl]-5-oxo-7-thioxo-6,8-diazaspiro[3.4]octan-6-yl]-3-(trifluoromethyl)pyridine-2-carbonitrile]
LNCaP-AR-wt ANT pIC50 [1]: 6.76
Emax [1]: 98.3%
LNCaP-AR-wt AG pEC50 [2, 6]: <4.82
Emax [2]: 2.8%
IC50 [3]: 43.7 nM
Emax [3]: 98.9%
LNCaP-AR-F876L AG pEC50 [4, 6]: <4.82
Emax [4]: 0.8%
rGABA-gated Cl− channel % inh @10 μM [5]: 13.1%
